Assay results as given in paper PMC7599001, “The SNAP-tag technology revised: an effective chemo-enzymatic approach by using a universal azide-based substrate” (Journal of Enzyme Inhibition and Medicinal Chemistry, 2020).
Where two headings read alike, the source gives them in different places.

Legend:
SsOGT-H^5 [1] = molecular target: T1, SsOGT-H^5 (Saccharolobus solfataricus, UniProt Q97VW7, G105K/K110E/M106T/R102A/S100A/S132E); assay: AGTs' substrate assay by competitive inhibition method with SVG (gel-imaging); format: biochemical
T1 construct: His6-tag; made in house; host or cells: E. coli ABLE C
T1 sequence (Q97VW7 whole entry S100A/R102A/G105K/M106T/K110E/S132E): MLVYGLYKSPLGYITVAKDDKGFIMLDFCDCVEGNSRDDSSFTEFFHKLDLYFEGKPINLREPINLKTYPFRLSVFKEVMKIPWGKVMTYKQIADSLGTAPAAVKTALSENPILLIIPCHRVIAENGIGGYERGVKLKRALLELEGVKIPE
Method: Competitive inhibition assay was performed as described[23]^,[38]. Briefly, by using a fixed concentration of the fluorescent SVG (5 µM) and enzymes (5 µM), an increasing amount of guanine-derivatives (0–2 mM) was added to the mixtures. […] Subsequently, fluorescent bands were measured by gel-imaging on a VersaDoc 4000™ system (Bio-Rad), by applying a blue LED/530 bandpass filter. Obtained data were finally plotted by Equation (1), (1) RF=100%/1+([I]/IC50)^[S] where RF is the obtained Relative Fluorescence, [I] and [S] are the concentration of the inhibitor and the substrate, respectively, and finally the IC50 is the concentration needed to reduce by 50% the fluorescence intensity of the protein band.
(§1) We evaluated the activity of SNAP-tag® and H^5 enzymes on BGN3 and BGSN3 by the afore-mentioned IC50 method (Figure S5(A,B)) and other O^6-guanine-derivatives (Table 1).
(§2) Because most of them are non-fluorescent compounds, we performed an AGTs’ competitive inhibition assay by using the fluorescein-derivative SNAP-Vista® Green as substrate (SVG), as previously described[22–24]^,[45]. Briefly, the reaction of an AGT with SVG led to a fluoresceinated protein, which can be visualised as a fluorescent band in gel-imaging analysis after SDS-PAGE. The presence of increasing amounts of a non-fluorescent competitor in the reaction causes a decrease of the fluorescent signals, which can be measured and plotted for the IC50 values determination[23]^,[46].

SNAP-tag® [2] = molecular target: T2, SNAP-tag® (Homo sapiens, UniProt P16455, A127T/C150S/C62A/G131K/G132T/K125A/M134L/N157G/R128A/R135S/S159E); assay: as above; format: biochemical; conditions: for IC50: SVG 5 µM, enzyme 5 µM, 30 min at 25 °C
T2 sequence (P16455 1-182 C62A/K125A/A127T/R128A/G131K/G132T/M134L/R135S/C150S/N157G/S159E): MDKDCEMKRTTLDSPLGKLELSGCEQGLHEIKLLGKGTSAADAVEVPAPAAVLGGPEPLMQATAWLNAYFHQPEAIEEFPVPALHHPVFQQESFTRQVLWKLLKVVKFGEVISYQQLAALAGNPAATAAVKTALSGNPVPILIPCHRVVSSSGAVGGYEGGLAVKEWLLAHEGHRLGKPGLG
Method: Competitive inhibition assay was performed as described[23]^,[38]. Briefly, by using a fixed concentration of the fluorescent SVG (5 µM) and enzymes (5 µM), an increasing amount of guanine-derivatives (0–2 mM) was added to the mixtures. The reactions were incubated for 30 min at 25 °C and 50 °C for SNAP-tag® and H^5 respectively, and loaded on SDS-PAGE. Subsequently, fluorescent bands were measured by gel-imaging on a VersaDoc 4000™ system (Bio-Rad), by applying a blue LED/530 bandpass filter. Obtained data were finally plotted by Equation (1), (1) RF=100%/1+([I]/IC50)^[S] where RF is the obtained Relative Fluorescence, [I] and [S] are the concentration of the inhibitor and the substrate, respectively, and finally the IC50 is the concentration needed to reduce by 50% the fluorescence intensity of the protein band.
as §1, §2

[3] = tested on: HEK293T cells transfected with SNAP-tag® plasmid; assay: Permeability of eukaryotic cells to BGSN3 (lysates then incubated with SVG, gel-imaging); format: cell-based
Method: HEK293T cells were maintained at 37 °C with 5% CO2 in Dulbecco’s Modified Essential Medium (Invitrogen, Carlsbad, CA) supplemented with 10% Foetal Bovine Serum (FBS) (Invitrogen) and 100 U/ml Penicillin/Streptomycin (Roche, Switzerland). HEK293T cells were transfected with SNAP-tag® plasmid by using Lipofectamine 2000 (Invitrogen) following manufacturer’s protocol. The treatment with BGSN3 were performed, at the concentration and time indicated for each experiment. Twenty-four hours after transfection, we treated cells with BGSN3 for 2 h at different concentrations ranging (from 1 to 25 µM), directly dissolving the compound in complete culture medium. Then cells were harvested, washed with PBS 1× buffer and lysed with 50 mM Tris-HCl pH 7.4, 150 mM NaCl, 0.5 mM EDTA, 0.1% Triton X-100 supplemented with complete protease (Roche, Switzerland) and phosphatase (SERVA Electrophoresis, Germany) inhibitors. Afterwards, transfected cells were treated with a fixed concentration of BGSN3 (10 µM) at different time points (from 30 to 120 min). Again, HEK293T cells were washed and lysed as described before. […] Subsequently, proteins were loaded on SDS-PAGE and analysed by gel-imaging on a VersaDoc 4000™ system (Bio-Rad), by applying a blue LED/530 bandpass filter (Figure 6).

SsOGT-H^5 [4] = molecular target: T1, SsOGT-H^5; conditions: cited from earlier work
SNAP-tag® [5] = molecular target: T2, SNAP-tag®; parameters: method as in PMID 18291317, PMID 26499124; conditions: 25 °C; obtained by using a BG-fluorescein substrate (BG-FL) very similar to SVG; cited from earlier work
[6] = SVG 5 µM, enzyme 5 µM, 30 min at 50 °C, read-out: IC50

Row | Molecule | IC50 (SsOGT-H^5 [1]; [6]) [µM] | IC50 (SNAP-tag® [2]) [µM] | further results
1 | Nc1nc(OCc2ccccc2)c2nc[nH]c2n1 [BG, O^6-benzyl-guanine] | 10.1 ± 1 |  | 
2 | [N-]=[N+]=NCc1ccc(COc2nc(N)nc3nc[nH]c23)cc1 [BGN3, O^6-BG-N3] | 23.5 ± 1 | 15.6 ± 0.3 | 
3 | [N-]=[N+]=NCCCC(=O)NCc1ccc(COc2nc(N)nc3[nH]cnc23)cc1 [BGSN3, N-(4-(((2-amino-9H-purin-6-yl)oxy)methyl)benzyl)-4-azidobutanamide] |  | 17.8 ± 1.1 | IC50 (SsOGT-H^5 [1]): 10 ± 0.7 µM; concentration for internalisation (absence of SVG signal) ([3]; 2 h treatment in culture medium): < 5 µM; time of internalisation ([3]; BGSN3 10 µM in culture medium): ca. 30 min
4 | BG-PEG-NH2 [BGPA] | 14.3 ± 1.9 | 86 ± 6.7 | 
5 | SNAP Cell^® 430 [SC430] |  |  | competition with SVG (SNAP-tag® [2]; competitive inhibition assay): completely lost the competition with SVG; competition with SVG (SsOGT-H^5 [1]; competitive inhibition assay): completely lost the competition with SVG
6 | SNAP Cell^® Block [SCB] | 4.4 ± 0.8 | 2.1 ± 0.5 | 
7 | SNAP-Vista^® Green [SVG] |  |  | k (second order rate constant of the enzymatic reaction) (SsOGT-H^5 [4]): 16000 M⁻¹ s⁻¹; k (second order rate constant of the enzymatic reaction) (SNAP-tag® [5]): 2.8 × 10^4 b s^−1 M^−1
8 | methyl-guanine-PEG-NH2 [MGPA] |  |  | IC50 (SsOGT-H^5 [1]; competitive assay for H^5 performed at 65 °C, read-out: IC50): 269 ± 19.1 µM
